Values after ≈ are worked out from the molar mass of the structure shown.
Legend:
[1] = target: T1, MRP2 (Homo sapiens, UniProt Q92887); assay: [14C] erythromycin uptake in MDCK-MRP2 cells; type: cell-based
[2] = target: T2, P-gp (human MDR1) (Homo sapiens, UniProt P08183); assay: [14C] erythromycin uptake in MDCKII-MDR1 cells; type: cell-based
[3] = target: T1, MRP2; assay: Bidirectional [14C] erythromycin transport across MDCK-MRP2 cell monolayers; type: cell-based
[4] = target: T3, BCRP (Homo sapiens, UniProt Q9UNQ0); assay: Accumulation of Hoechst 33342 in MDCK-BCRP cells; type: cell-based; conditions: gatifloxacin 0.5, 1, 2.5, 5 and 10 mM, Hoechst 33342 5μM
T3 sequence (Q9UNQ0 1-655): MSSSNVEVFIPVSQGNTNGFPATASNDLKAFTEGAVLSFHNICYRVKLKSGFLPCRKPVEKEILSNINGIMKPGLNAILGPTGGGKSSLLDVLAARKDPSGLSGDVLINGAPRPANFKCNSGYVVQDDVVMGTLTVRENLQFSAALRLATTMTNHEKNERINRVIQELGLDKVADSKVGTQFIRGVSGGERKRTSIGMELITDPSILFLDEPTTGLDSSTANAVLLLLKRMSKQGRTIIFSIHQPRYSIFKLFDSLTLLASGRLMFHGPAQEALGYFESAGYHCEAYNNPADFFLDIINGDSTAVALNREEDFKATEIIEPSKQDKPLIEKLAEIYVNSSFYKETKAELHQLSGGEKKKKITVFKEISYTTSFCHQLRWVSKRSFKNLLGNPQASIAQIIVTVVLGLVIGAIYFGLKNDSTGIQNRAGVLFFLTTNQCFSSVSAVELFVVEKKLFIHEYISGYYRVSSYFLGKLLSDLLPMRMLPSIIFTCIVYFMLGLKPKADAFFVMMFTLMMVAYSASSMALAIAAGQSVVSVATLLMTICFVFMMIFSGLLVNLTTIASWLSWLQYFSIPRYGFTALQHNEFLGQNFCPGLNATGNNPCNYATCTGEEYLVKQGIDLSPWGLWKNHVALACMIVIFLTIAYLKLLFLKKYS

[5] = system: MDCKII-MDR1, MDCK-MRP2 and MDCK-BCRP cells; assay: ATP activity assay in MDCK cell lines; type: cell-based, dog; conditions: all MDCK cell lines, 30 min treatment, 0.75, 1.25, 2.5 and 5mM
[6] = target: T2, P-gp (human MDR1); conditions: MDCKII-MDR1 monolayers
[7] = system: many bacterial species; conditions: cited from earlier work
[8] = system: P-gp; conditions: rat endothelial cell line (RBMEC); ref Li et al. 2009; cited from earlier work
[9] = system: MRP2; assay: Bidirectional [14C] erythromycin transport across MDCK-MRP2 cell monolayers; type: cell-based, human; conditions: human, pH 7.4
[10] = target: T2, P-gp (human MDR1); assay: in vitro; conditions: MDCK-MDR1, pH 7.4

T1 sequence (Q92887 whole entry): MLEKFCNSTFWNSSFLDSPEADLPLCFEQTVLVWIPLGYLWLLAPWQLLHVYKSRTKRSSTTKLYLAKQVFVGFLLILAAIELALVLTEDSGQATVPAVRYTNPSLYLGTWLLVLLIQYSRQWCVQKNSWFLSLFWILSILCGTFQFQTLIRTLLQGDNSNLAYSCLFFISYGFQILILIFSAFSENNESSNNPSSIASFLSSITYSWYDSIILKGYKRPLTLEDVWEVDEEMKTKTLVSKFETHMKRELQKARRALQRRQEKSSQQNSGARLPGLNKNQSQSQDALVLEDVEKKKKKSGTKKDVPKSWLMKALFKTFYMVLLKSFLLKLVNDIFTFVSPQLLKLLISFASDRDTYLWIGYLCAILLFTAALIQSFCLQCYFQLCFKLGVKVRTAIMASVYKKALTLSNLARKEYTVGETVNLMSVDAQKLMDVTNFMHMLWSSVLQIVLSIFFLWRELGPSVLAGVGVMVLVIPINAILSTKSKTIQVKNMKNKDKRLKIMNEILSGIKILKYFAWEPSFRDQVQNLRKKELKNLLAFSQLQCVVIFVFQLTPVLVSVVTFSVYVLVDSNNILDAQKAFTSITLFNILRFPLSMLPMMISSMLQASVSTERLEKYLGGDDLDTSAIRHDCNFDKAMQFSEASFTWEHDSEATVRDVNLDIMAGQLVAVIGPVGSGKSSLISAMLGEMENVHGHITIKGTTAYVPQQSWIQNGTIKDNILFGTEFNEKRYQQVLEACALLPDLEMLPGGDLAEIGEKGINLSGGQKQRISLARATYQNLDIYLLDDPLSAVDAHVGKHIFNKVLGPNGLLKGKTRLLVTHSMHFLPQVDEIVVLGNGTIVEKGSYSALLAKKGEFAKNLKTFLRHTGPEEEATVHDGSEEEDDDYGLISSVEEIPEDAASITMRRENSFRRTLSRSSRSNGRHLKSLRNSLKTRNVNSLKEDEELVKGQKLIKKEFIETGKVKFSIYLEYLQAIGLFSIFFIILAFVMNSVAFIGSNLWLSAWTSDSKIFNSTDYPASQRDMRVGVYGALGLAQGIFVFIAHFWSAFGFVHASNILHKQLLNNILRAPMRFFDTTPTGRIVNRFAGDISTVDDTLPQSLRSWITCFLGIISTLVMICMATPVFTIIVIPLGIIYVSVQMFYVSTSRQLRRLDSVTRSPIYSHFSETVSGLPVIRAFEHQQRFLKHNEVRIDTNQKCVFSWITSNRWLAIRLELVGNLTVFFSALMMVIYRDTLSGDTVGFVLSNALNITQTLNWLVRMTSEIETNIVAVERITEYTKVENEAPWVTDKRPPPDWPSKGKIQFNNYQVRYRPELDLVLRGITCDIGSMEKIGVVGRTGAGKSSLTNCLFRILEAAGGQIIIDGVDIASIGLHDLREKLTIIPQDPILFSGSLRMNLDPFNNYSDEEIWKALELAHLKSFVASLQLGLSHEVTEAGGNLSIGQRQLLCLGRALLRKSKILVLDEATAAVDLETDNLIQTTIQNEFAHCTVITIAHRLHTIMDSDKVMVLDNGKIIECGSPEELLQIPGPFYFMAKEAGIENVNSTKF
T2 sequence (P08183 whole entry): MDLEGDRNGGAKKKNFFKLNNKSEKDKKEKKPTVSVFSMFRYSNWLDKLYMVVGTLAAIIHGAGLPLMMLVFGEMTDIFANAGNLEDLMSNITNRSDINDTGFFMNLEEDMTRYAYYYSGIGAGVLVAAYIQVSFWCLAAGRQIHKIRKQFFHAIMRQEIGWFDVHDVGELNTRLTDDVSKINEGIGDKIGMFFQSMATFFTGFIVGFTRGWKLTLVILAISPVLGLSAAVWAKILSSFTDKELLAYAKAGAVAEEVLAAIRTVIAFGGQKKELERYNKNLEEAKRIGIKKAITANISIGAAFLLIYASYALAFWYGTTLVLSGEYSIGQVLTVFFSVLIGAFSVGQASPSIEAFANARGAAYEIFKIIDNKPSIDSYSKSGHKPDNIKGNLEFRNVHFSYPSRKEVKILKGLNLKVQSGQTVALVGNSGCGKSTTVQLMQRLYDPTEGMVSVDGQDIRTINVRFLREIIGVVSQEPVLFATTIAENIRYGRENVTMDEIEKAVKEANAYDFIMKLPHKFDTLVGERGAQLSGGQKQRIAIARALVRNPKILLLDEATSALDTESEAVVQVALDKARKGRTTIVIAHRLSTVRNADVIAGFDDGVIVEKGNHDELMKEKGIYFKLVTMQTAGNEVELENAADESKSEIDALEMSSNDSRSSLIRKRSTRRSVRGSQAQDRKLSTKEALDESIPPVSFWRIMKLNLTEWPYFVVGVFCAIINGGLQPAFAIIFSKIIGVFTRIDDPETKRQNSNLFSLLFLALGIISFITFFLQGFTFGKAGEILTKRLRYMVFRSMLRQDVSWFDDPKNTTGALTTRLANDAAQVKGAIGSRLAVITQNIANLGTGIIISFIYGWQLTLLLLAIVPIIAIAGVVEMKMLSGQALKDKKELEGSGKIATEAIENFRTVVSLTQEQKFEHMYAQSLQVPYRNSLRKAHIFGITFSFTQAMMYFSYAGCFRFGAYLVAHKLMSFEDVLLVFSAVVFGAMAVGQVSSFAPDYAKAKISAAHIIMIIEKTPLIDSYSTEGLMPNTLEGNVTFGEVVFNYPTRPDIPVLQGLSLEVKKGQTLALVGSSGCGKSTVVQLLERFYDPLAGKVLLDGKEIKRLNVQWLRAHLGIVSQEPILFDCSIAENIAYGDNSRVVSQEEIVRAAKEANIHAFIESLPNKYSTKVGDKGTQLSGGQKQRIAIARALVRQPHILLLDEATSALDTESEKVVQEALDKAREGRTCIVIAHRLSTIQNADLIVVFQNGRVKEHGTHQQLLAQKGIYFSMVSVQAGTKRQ

Structure (SMILES)	IC50 [1]	Ki [1]	Uptake of [14C] erythromycin higher by ([1]; MDCK-MRP2 cells, 100 μM MK571, 30 min)	IC50 [2]	Ki [2]	Effect on efflux ratio of [14C] erythromycin ([3]; MDCK-MRP2 monolayers, increasing concentrations of gatifloxacin)	Effect on Hoechst 33342 uptake [4]	ATP activity of treated cells compared to vehicle control [5]	Effect on efflux ratio of [14C] erythromycin ([6]; increasing concentrations of gatifloxacin)	Minimum inhibitory concentration (MIC) ([7]; against many bacterial species, introduction, no reference given)	Activity relative to the other quinolones ([7]; ref Ba et al. 2006)	Involvement of P-gp in the translocation of gatifloxacin [8]	efflux ratio at 3 h ([3]; human, pH 7.4)	efflux ratio at 3 h [9]	Papp of [14C] erythromycin in B-A direction relative to AP-BL direction ([6]; erythromycin alone)	efflux ratio at 3 h [10]
CN(C)C(=O)CCSC(SCCC(=O)O)c1cccc(/C=C/c2ccc3ccc(Cl)cc3n2)c1 (stereo not drawn) [MK571]	188 ± 28.2 µM	175 ± 18.2 µM	177%	–	–	–	–	–	–	–	–	–	–	–	–	–
COc1c(N2CCNC(C)C2)c(F)cc2c(=O)c(C(=O)O)cn(C3CC3)c12 (stereo not drawn) [gatifloxacin]	5230 ± 390 µM	5370 ± 218 µM	–	359 ± 90.1 µM	385 ± 88.6 µM	continuously became lower and approached unity	not found to be significantly different	No significant difference	progressively decrease and approach unity	0.1 µg/mL (≈ 0.266 µM)	two- to fourfold more active	did not find any significant involvement	–	–	–	–
CC[C@H]1OC(=O)[C@H](C)[C@@H](O[C@H]2C[C@@](C)(OC)[C@@H](O)[C@H](C)O2)[C@H](C)[C@@H](O[C@@H]2O[C@H](C)C[C@H](N(C)C)[C@H]2O)[C@](C)(O)C[C@@H](C)C(=O)[C@H](C)[C@@H](O)[C@]1(C)O [[^14C] erythromycin, erythromycin]	–	–	–	–	–	–	–	–	–	–	–	–	5.3	> 7	more than fivefold higher	7.2

— paper PMC2902587 (International journal of pharmaceutics, 2010)
